Results: patent US10238630B2, “Use of eribulin and poly (ADP ribose) polymerase (PARP) inhibitors as combination therapy for the treatment of cancer” (Eisai R&D Management Co., Ltd., priority 2014, dated 2019)
“Also recorded” adds a separate entry of the source. Where a name gives a salt, the structure may show the parent alone.

System: MDA-MB-231 human breast cancer xenografts
Assay: Antitumor activity against subcutaneous MDA-MB-231 human breast cancer xenografts in athymic mice (two studies)
Format: in vivo
Method: MDA-MB-231 human triple negative breast cancer cells are wild type for BRCA1 and 2 and PTEN. Cells were maintained in monolayer cultures in RPMI-1640 growth medium supplemented with 10% fetal bovine serum at 37° C. in a 5% CO2 humidified incubator. On the day of inoculation, cells were harvested by trypsinization, washed, and resuspended in ice-cold PBS. Female immunodeficient athymic mice were inoculated subcutaneously near the right axillary area with MDA-MB-231 cells (5×10^6) in a 1:1 ratio (50 μL each) with Matrigel™ in a volume of 0.1 mL in phosphate buffered saline, using a 26-gauge needle. A total of 94 mice, approximately 6 weeks old were implanted with MDA-MB-231 cells.
E7449, carboplatin and E7389 were evaluated as single agents and in combination for antitumor activity against MDA-MB-231 human breast cancer xenografts in athymic mice. The first experiment consisted of a vehicle control group, an E7449 single agent group, 2 groups treated with single agent E7389 and 2 combination drug-treated groups (Table 5). Thirty-nine mice were inoculated with MDA-MB-231 cells and on Day 21 following implantation, tumor volumes were measured and mice were randomized into the 6 treatment groups based on tumor volume (average of 300 mm^3). Following randomization drug treatment was initiated. Each group was composed of 5 mice for a total of 30 mice on the first day of treatment. E7449 was formulated in 0.5% methyl cellulose and orally administered once daily for 28 days at 100 mg/kg based on body weight at 0.1 mL per 10 g. E7389 was formulated in saline and was intravenously administered once every 4 days, 4 times (Day 21, 25, 29, and 33) at a dosage of 0.05 or 0.1 mg/kg as single agent or in combination with E7449, based on body weight at 0.1 mL per 10 g. The control group was treated with oral vehicle (0.5% methyl cellulose in water) daily and intravenous vehicle (saline) once every 4 days, 4 times. E7449 or vehicle was administered first and when dosing of all animals was complete E7389 was administered to animals receiving the combination.
The second experiment consisted of a vehicle control group, 2 groups treated with single agent E7449, 2 groups treated with single agent carboplatin and 3 combination drug-treated groups (Table 6). Fifty five mice were inoculated with MDA-MB-231 cells and on Day 18 following implantation, tumor volumes were measured and mice were randomized into 8 treatment groups based on tumor volume (average of 300 mm^3). Following randomization drug treatment was initiated. Each group consisted of 5 mice for a total of 40 mice on the first day of treatment. E7449, formulated in 0.5% methyl cellulose was orally administered daily for 28 days, at 60 or 100 mg/kg based on body weight at 0.1 mL per 10 g. Carboplatin was formulated in saline and was intravenously administered once on the first day of treatment (Day 18) at a dosage of 15 or 60 mg/kg as a single agent or in combination with E7449 based on body weight at 0.1 mL per 10 g. The control group was treated with oral vehicle (0.5% methyl cellulose in water) daily and intravenous vehicle (saline) once on Day 18. E7449 or vehicle was administered first and when dosing of all animals was complete carboplatin was administered to animals receiving the combination.
Drug treatment was initiated 21 or 18 days post tumor implantation, in the E7389 and carboplatin combination studies respectively, and continued for 28 days. […]

SMILES: C=C1C[C@@H]2CC[C@@]34C[C@H]5OC6[C@@H](O[C@H]7CC[C@H](CC(=O)C[C@@H]8[C@@H](OC)[C@@H](C[C@H](O)CN)O[C@H]8C[C@H]8O[C@@H](CC[C@@H]1O2)C[C@@H](C)C8=C)O[C@@H]7[C@@H]6O3)[C@H]5O4 [E7389, 11, 15:18,21:24,28-triepoxy-7,9-ethano-12,15-methano-9H,15H-furo[3,2-i]furo[2′,3′:5,6]pyrano[4,3-b] [1,4]dioxacyclopentacosin-5(4H)-one, 2-[(2S)-3-amino-2-hydroxypropyl]hexacosahydro-3-methoxy-26-methyl-20,27-bis(methylene)-, (2R,3R,3aS,7R,8aS,9S,10aR,11S,12R,13aR,13bS,15S,18S,21S,24S,26R,28R,29aS)-methanesulfonate (salt)]
- inhibition of tumor growth versus vehicle (E7389 0.1 mg/kg IV Q4Dx4, single agent, P<0.05 on Day 42, 0.1 mg/kg): statistically significant effect; also recorded: Statistically significant inhibition of tumor growth
- antitumor effect (tumor volume), dose dependence (E7389 0.05 and 0.1 mg/kg IV Q4Dx4, single agent): Dose dependent antitumor activity

SMILES: O=c1[nH]nc2c3c(cccc13)N=C(CN1Cc3ccccc3C1)N2 [E7449]
- antitumor effect (tumor volume) (E7389 combination study, E7449 100 mg/kg PO QDx28, single agent, 100 mg/kg): did not significantly inhibit tumor growth; also recorded: No antitumor activity
- antitumor effect (tumor volume) (carboplatin combination study, E7449 60 or 100 mg/kg PO QDx28, single agent): did not significantly inhibit tumor growth; also recorded: No antitumor activity
